System: subjects with AK on the dorsal forearm
Experiment: Phase 1 study KX01-AK-01-US: local skin reactions (investigator score 0 none to 4 severe; subject score 0 none to 3 severe) and adverse events
[1] = Cohort 1: 0.5 mg/25 cm^2 QD x3 days, N=4
[2] = Cohort 2: 2 mg/100 cm^2 QD x3 days, N=10
[3] = Cohort 3: 0.5 mg/25 cm^2 QD x5 days, N=8
[4] = Cohort 4: 2 mg/100 cm^2 QD x5 days, N=8

Procedure: A Phase 1, single-center, safety, tolerability and pharmacokinetic study of KX-01 was performed on subjects with AK on the dorsal forearm. This was an open-label, uncontrolled, nonrandomized, sequential group clinical trial conducted at a single investigational center in the United States. The primary objectives of the study were to assess the safety, tolerability and pharmacokinetics of KX-01 in subjects with AK. The secondary objective was to evaluate the activity of KX-01 administered topically to the dorsal forearm in subjects with AK.
KX-01 was administered topically on treatment days. All subjects were monitored for safety and tolerability that included LSRs, AEs, vital signs, clinical laboratory tests, ECGs, and physical examinations at baseline and at pre-defined time points during treatment and follow-up on days 1, 2, 3, 4, 5, 8, 10, 17, 31 and 45.
LSRs (erythema, flaking/scaling, crusting, swelling, vesiculation/pustulation, erosion/ulceration) were assessed by the investigator or trained designee using a 4-point scale according to the protocol. The subject's assessment of the symptoms (stinging/burning, pruritus) associated with irritation of the treatment area was evaluated on a 4-point scale (0=none, 1=mild, 2=moderate, 3=severe). Subjects were queried for spontaneously reported AEs at each study visit before assessment of LSRs. LSRs and AEs were reported separately. All LSRs were to be followed to resolution or stabilization.

## O=C(Cc1ccc(-c2ccc(OCCN3CCOCC3)cc2)cn1)NCc1ccccc1 [KX-01]
3-day treatment cohorts (Cohorts 1 and 2)
  Day LSRs tended to peak: ~5 days
5-day treatment cohorts (Cohorts 3 and 4)
  Day LSRs tended to peak: ~10 days
[1]
  Burning (subject-assessed) max score 0, number of subjects: 4
  Burning (subject-assessed) max score 1, number of subjects: 0
  Burning (subject-assessed) max score 2, number of subjects: 0
  Burning (subject-assessed) max score 3, number of subjects: 0
  Crusting max score 0, number of subjects: 4
  Crusting max score 1, number of subjects: 0
  Crusting max score 2, number of subjects: 0
  Crusting max score 3, number of subjects: 0
  Crusting max score 4, number of subjects: 0
  Erosions/ulcers max score 0, number of subjects: 4
  Erosions/ulcers max score 1, number of subjects: 0
  Erosions/ulcers max score 2, number of subjects: 0
  Erosions/ulcers max score 3, number of subjects: 0
  Erosions/ulcers max score 4, number of subjects: 0
  Erythema max score 0, number of subjects: 0
  Erythema max score 1, number of subjects: 2
  Erythema max score 2, number of subjects: 1
  Erythema max score 3, number of subjects: 1
  Erythema max score 4, number of subjects: 0
  Flaking/scaling max score 0, number of subjects: 0
  Flaking/scaling max score 1, number of subjects: 3
  Flaking/scaling max score 2, number of subjects: 0
  Flaking/scaling max score 3, number of subjects: 1
  Flaking/scaling max score 4, number of subjects: 0
  Pruritus (subject-assessed) max score 0, number of subjects: 3
  Pruritus (subject-assessed) max score 1, number of subjects: 1
  Pruritus (subject-assessed) max score 2, number of subjects: 0
  Pruritus (subject-assessed) max score 3, number of subjects: 0
  Stinging (subject-assessed) max score 0, number of subjects: 3
  Stinging (subject-assessed) max score 1, number of subjects: 1
  Stinging (subject-assessed) max score 2, number of subjects: 0
  Stinging (subject-assessed) max score 3, number of subjects: 0
  Swelling max score 0, number of subjects: 4
  Swelling max score 1, number of subjects: 0
  Swelling max score 2, number of subjects: 0
  Swelling max score 3, number of subjects: 0
  Swelling max score 4, number of subjects: 0
  Vesicles/pustules max score 0, number of subjects: 4
  Vesicles/pustules max score 1, number of subjects: 0
  Vesicles/pustules max score 2, number of subjects: 0
  Vesicles/pustules max score 3, number of subjects: 0
  Vesicles/pustules max score 4, number of subjects: 0
[2]
  Burning (subject-assessed) max score 0, number of subjects: 6
  Burning (subject-assessed) max score 1, number of subjects: 3
  Burning (subject-assessed) max score 2, number of subjects: 1
  Burning (subject-assessed) max score 3, number of subjects: 0
  Crusting max score 0, number of subjects: 5
  Crusting max score 1, number of subjects: 5
  Crusting max score 2, number of subjects: 0
  Crusting max score 3, number of subjects: 0
  Crusting max score 4, number of subjects: 0
  Erosions/ulcers max score 0, number of subjects: 10
  Erosions/ulcers max score 1, number of subjects: 0
  Erosions/ulcers max score 2, number of subjects: 0
  Erosions/ulcers max score 3, number of subjects: 0
  Erosions/ulcers max score 4, number of subjects: 0
  Erythema max score 0, number of subjects: 0
  Erythema max score 1, number of subjects: 6
  Erythema max score 2, number of subjects: 2
  Erythema max score 3, number of subjects: 2
  Erythema max score 4, number of subjects: 0
  Flaking/scaling max score 0, number of subjects: 1
  Flaking/scaling max score 1, number of subjects: 2
  Flaking/scaling max score 2, number of subjects: 1
  Flaking/scaling max score 3, number of subjects: 6
  Flaking/scaling max score 4, number of subjects: 0
  Pruritus (subject-assessed) max score 0, number of subjects: 4
  Pruritus (subject-assessed) max score 1, number of subjects: 6
  Pruritus (subject-assessed) max score 2, number of subjects: 0
  Pruritus (subject-assessed) max score 3, number of subjects: 0
  Stinging (subject-assessed) max score 0, number of subjects: 8
  Stinging (subject-assessed) max score 1, number of subjects: 2
  Stinging (subject-assessed) max score 2, number of subjects: 0
  Stinging (subject-assessed) max score 3, number of subjects: 0
  Swelling max score 0, number of subjects: 8
  Swelling max score 1, number of subjects: 2
  Swelling max score 2, number of subjects: 0
  Swelling max score 3, number of subjects: 0
  Swelling max score 4, number of subjects: 0
  Vesicles/pustules max score 0, number of subjects: 10
  Vesicles/pustules max score 1, number of subjects: 0
  Vesicles/pustules max score 2, number of subjects: 0
  Vesicles/pustules max score 3, number of subjects: 0
  Vesicles/pustules max score 4, number of subjects: 0
[3]
  Burning (subject-assessed) max score 0, number of subjects: 4
  Burning (subject-assessed) max score 1, number of subjects: 3
  Burning (subject-assessed) max score 2, number of subjects: 1
  Burning (subject-assessed) max score 3, number of subjects: 0
  Crusting max score 0, number of subjects: 1
  Crusting max score 1, number of subjects: 7
  Crusting max score 2, number of subjects: 0
  Crusting max score 3, number of subjects: 0
  Crusting max score 4, number of subjects: 0
  Erosions/ulcers max score 0, number of subjects: 8
  Erosions/ulcers max score 1, number of subjects: 0
  Erosions/ulcers max score 2, number of subjects: 0
  Erosions/ulcers max score 3, number of subjects: 0
  Erosions/ulcers max score 4, number of subjects: 0
  Erythema max score 0, number of subjects: 0
  Erythema max score 1, number of subjects: 2
  Erythema max score 2, number of subjects: 4
  Erythema max score 3, number of subjects: 2
  Erythema max score 4, number of subjects: 0
  Flaking/scaling max score 0, number of subjects: 0
  Flaking/scaling max score 1, number of subjects: 2
  Flaking/scaling max score 2, number of subjects: 2
  Flaking/scaling max score 3, number of subjects: 4
  Flaking/scaling max score 4, number of subjects: 0
  Pruritus (subject-assessed) max score 0, number of subjects: 2
  Pruritus (subject-assessed) max score 1, number of subjects: 4
  Pruritus (subject-assessed) max score 2, number of subjects: 1
  Pruritus (subject-assessed) max score 3, number of subjects: 1
  Stinging (subject-assessed) max score 0, number of subjects: 6
  Stinging (subject-assessed) max score 1, number of subjects: 1
  Stinging (subject-assessed) max score 2, number of subjects: 1
  Stinging (subject-assessed) max score 3, number of subjects: 0
  Swelling max score 0, number of subjects: 4
  Swelling max score 1, number of subjects: 1
  Swelling max score 2, number of subjects: 0
  Swelling max score 3, number of subjects: 3
  Swelling max score 4, number of subjects: 0
  Vesicles/pustules max score 0, number of subjects: 8
  Vesicles/pustules max score 1, number of subjects: 0
  Vesicles/pustules max score 2, number of subjects: 0
  Vesicles/pustules max score 3, number of subjects: 0
  Vesicles/pustules max score 4, number of subjects: 0
[4]
  Burning (subject-assessed) max score 0, number of subjects: 4
  Burning (subject-assessed) max score 1, number of subjects: 4
  Burning (subject-assessed) max score 2, number of subjects: 0
  Burning (subject-assessed) max score 3, number of subjects: 0
  Crusting max score 0, number of subjects: 4
  Crusting max score 1, number of subjects: 4
  Crusting max score 2, number of subjects: 0
  Crusting max score 3, number of subjects: 0
  Crusting max score 4, number of subjects: 0
  Erosions/ulcers max score 0, number of subjects: 7
  Erosions/ulcers max score 1, number of subjects: 1
  Erosions/ulcers max score 2, number of subjects: 0
  Erosions/ulcers max score 3, number of subjects: 0
  Erosions/ulcers max score 4, number of subjects: 0
  Erythema max score 0, number of subjects: 0
  Erythema max score 1, number of subjects: 2
  Erythema max score 2, number of subjects: 4
  Erythema max score 3, number of subjects: 2
  Erythema max score 4, number of subjects: 0
  Flaking/scaling max score 0, number of subjects: 0
  Flaking/scaling max score 1, number of subjects: 2
  Flaking/scaling max score 2, number of subjects: 4
  Flaking/scaling max score 3, number of subjects: 2
  Flaking/scaling max score 4, number of subjects: 0
  Pruritus (subject-assessed) max score 0, number of subjects: 0
  Pruritus (subject-assessed) max score 1, number of subjects: 4
  Pruritus (subject-assessed) max score 2, number of subjects: 4
  Pruritus (subject-assessed) max score 3, number of subjects: 0
  Stinging (subject-assessed) max score 0, number of subjects: 5
  Stinging (subject-assessed) max score 1, number of subjects: 3
  Stinging (subject-assessed) max score 2, number of subjects: 0
  Stinging (subject-assessed) max score 3, number of subjects: 0
  Swelling max score 0, number of subjects: 1
  Swelling max score 1, number of subjects: 6
  Swelling max score 2, number of subjects: 1
  Swelling max score 3, number of subjects: 0
  Swelling max score 4, number of subjects: 0
  Vesicles/pustules max score 0, number of subjects: 8
  Vesicles/pustules max score 1, number of subjects: 0
  Vesicles/pustules max score 2, number of subjects: 0
  Vesicles/pustules max score 3, number of subjects: 0
  Vesicles/pustules max score 4, number of subjects: 0
All TEAEs
  Severity of TEAEs: mild to moderate
All cohorts
  Local tolerability: acceptable
  Number of TEAEs: 10
  Subjects reporting treatment emergent adverse events (TEAEs): Four of 30
  Subjects with a vesicle or pustule: No subject
  Subjects with an LSR score of 4 in any category: No subject
All cohorts, 30 subjects
  Subjects with LSRs as assessed by the Investigator: 30
human, in vivo
  Day by which application-site symptoms resolved: ≤ 45 days
  Nature of local skin reactions: primarily mild
In general
  Day LSRs appeared: 2 days
Of 30 subjects
  Subjects with erythema and/or flaking/scaling score 1 or 2 at day 45: Fifteen
